Patent US20070225351A1, “Methods and compositions for controlling body weight and appetite” (priority 2002, published 2007)

Key:
[1] = target: T1, serotonin transporter (Rattus norvegicus, UniProt P31652); assay: Serotonin transporter binding assay, [3H]citalopram; settings: from Table 2
T1 construct: The receptor source was rat forebrain membrane; from tissue; host or cells: rat forebrain membranes
Experimental: The reference compound and positive control were (±)-desmethylimipramine. […] Reactions were carried out in 50 mM TRIS-HCl (pH 7.4) containing 120 mM NaCl and 5 mM KCl at 25° C. for 60 minutes. The reaction was terminated by rapid vacuum filtration onto glass fiber filters. Radioactivity trapped in the filters was determined using liquid scintillation spectrometry and compared to control values in order to ascertain any interactions of test compound with the serotonin transporter binding site.

[2] = 13-week oral toxicity study in rats (body weight, food consumption, clinical pathology, organ weights); assay type: in vivo, rat; settings: for mean cumulative body weight gain, lower than control: end of 13-week study; for mean body weight, lower than control: end of study
Experimental: One hundred and forty Crl:CD®(SD)IGS BR rats were divided into 7 groups of 20 rats (ten male and ten female). […] Individual body weights were recorded at least weekly, beginning approximately two weeks prior to test article administration (study week-2). Mean body weights and mean body weight changes were calculated for the corresponding intervals. Final body weights (fasted) were recorded prior to the scheduled necropsy.
For toxicology assessment, all animals were observed three times daily for mortality and moribundity. Clinical examinations were performed daily and detailed physical examinations were performed weekly. Following 13 weeks of dose administration, all surviving animals were euthanized.

[3] = Effect on weight gain in male DIO rats; assay type: in vivo, rat
Experimental: Male DIO rats, weighing approximately 200 g each were housed singly in plastic cages with wood litter and free access to food and water in a vivarium maintained under a 12 hour light/dark cycle at 21±3°. After an acclimatization period of 1 week, the studies were initiated. During the study period, access to food and water was restricted for 3 hours per day (1000 to 1300 hrs). On day 0, the amount of food and water consumed was measured in all rats in the absence of any treatment. […] A cannabinoid receptor blocker, termed AM251, and an enantiomer of fenfluramine, termed d-FEN1, both of which are known to regulate the melanocortin pathways in animals, were also administered for comparison purposes. Test compounds or vehicle were then orally administered in a volume of 5 mL/kg 60 minutes before access to food and water (0900 hrs). Body weight was measured prior to and 18 hours after administration of the various compounds.

T1 sequence (P31652 whole entry): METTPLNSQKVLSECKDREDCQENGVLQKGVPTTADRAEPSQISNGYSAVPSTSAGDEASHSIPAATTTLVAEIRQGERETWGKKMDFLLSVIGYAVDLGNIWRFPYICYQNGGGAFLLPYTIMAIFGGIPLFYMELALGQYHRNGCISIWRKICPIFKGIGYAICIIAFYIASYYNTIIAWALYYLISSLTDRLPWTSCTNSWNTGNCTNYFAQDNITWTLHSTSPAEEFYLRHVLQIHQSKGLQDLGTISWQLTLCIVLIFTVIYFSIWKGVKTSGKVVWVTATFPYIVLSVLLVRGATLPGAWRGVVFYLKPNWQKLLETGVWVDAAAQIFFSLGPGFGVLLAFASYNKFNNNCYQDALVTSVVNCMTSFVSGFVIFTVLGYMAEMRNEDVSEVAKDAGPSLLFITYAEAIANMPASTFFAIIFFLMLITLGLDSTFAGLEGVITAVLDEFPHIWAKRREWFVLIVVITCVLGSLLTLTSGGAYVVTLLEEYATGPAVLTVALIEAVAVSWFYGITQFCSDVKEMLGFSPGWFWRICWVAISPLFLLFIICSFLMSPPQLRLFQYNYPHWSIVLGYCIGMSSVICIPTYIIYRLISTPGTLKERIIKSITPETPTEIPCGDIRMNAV

Cl.Clc1ccc([C@@]23CNC[C@@H]2C3)cc1Cl (single isomer, unassigned) [(+)-1-(3,4-dichlorophenyl)-3-azabicyclo[3.1.0]hexane hydrochloride]
affinity for the serotonin uptake site compared with the (±) compound [1]: significantly greater affinity
NOAEL at 13 weeks ([2]; both sexes, Crl:CD(SD)IGS BR, rat, in vivo, rats, oral administration for 13 weeks, read-out: no-observed-adverse-effect level (NOAEL)): 10 mg/kg/day
mean cumulative body weight gain, lower than control ([2]; female rats, 25 mg/kg/day oral): 13%
food consumption, lower than control ([2]; female rats, 25 mg/kg/day, first week): 16%
mean cumulative body weight gain, lower than control ([2]; female rats, 60 mg/kg/day oral): 13%
mean body weight, lower than control ([2]; female rats, 60 mg/kg/day oral): 9%
food consumption, lower than control ([2]; female rats, 60 mg/kg/day, first week): 32%
food consumption, lower than control ([2]; female rats, 60 mg/kg/day, second week): 11%
weekly food consumption, MEAN ([2]; female rats, 10 MG/KG/DAY group, WEEK −2 TO −1 (before dosing)): 18. C/ANIMAL/DAY
weekly food consumption, MEAN ([2]; female rats, 10 MG/KG/DAY, WEEK 0 TO 1): 17. C/ANIMAL/DAY
weekly food consumption, MEAN ([2]; female rats, 10 MG/KG/DAY, WEEK 1 TO 2): 19. C/ANIMAL/DAY
weekly food consumption, MEAN ([2]; female rats, 10 MG/KG/DAY, WEEK 2 TO 3): 20. C/ANIMAL/DAY
weekly food consumption, MEAN ([2]; female rats, 10 MG/KG/DAY, WEEK 3 TO 4): 20. C/ANIMAL/DAY
weekly food consumption, MEAN ([2]; female rats, 10 MG/KG/DAY, WEEK 4 TO 5): 19. C/ANIMAL/DAY
weekly food consumption, MEAN ([2]; female rats, 10 MG/KG/DAY, WEEK 5 TO 6): 18. C/ANIMAL/DAY
weekly food consumption, MEAN ([2]; female rats, 10 MG/KG/DAY, WEEK 6 TO 7): 18. C/ANIMAL/DAY
weekly food consumption, MEAN ([2]; female rats, 10 MG/KG/DAY, WEEK 7 TO 8): 18. C/ANIMAL/DAY
weekly food consumption, MEAN ([2]; female rats, 10 MG/KG/DAY, WEEK 8 TO 9): 18. C/ANIMAL/DAY
weekly food consumption, MEAN ([2]; female rats, 10 MG/KG/DAY, WEEK 9 TO 10): 18. C/ANIMAL/DAY
weekly food consumption, MEAN ([2]; female rats, 10 MG/KG/DAY, WEEK 10 TO 11): 18. C/ANIMAL/DAY
weekly food consumption, MEAN ([2]; female rats, 10 MG/KG/DAY, WEEK 11 TO 12): 18. C/ANIMAL/DAY
weekly food consumption, MEAN ([2]; female rats, 10 MG/KG/DAY, WEEK 12 TO 13): 17. C/ANIMAL/DAY
weekly food consumption, MEAN ([2]; female rats, 25 MG/KG/DAY group, WEEK −2 TO −1 (before dosing)): 17. C/ANIMAL/DAY
weekly food consumption, MEAN ([2]; female rats, 25 MG/KG/DAY, WEEK 0 TO 1): 16.** C/ANIMAL/DAY
weekly food consumption, MEAN ([2]; female rats, 25 MG/KG/DAY, WEEK 1 TO 2): 20. C/ANIMAL/DAY
weekly food consumption, MEAN ([2]; female rats, 25 MG/KG/DAY, WEEK 2 TO 3): 10. C/ANIMAL/DAY
weekly food consumption, MEAN ([2]; female rats, 25 MG/KG/DAY, WEEK 3 TO 4): 20. C/ANIMAL/DAY
weekly food consumption, MEAN ([2]; female rats, 25 MG/KG/DAY, WEEK 4 TO 5): 18. C/ANIMAL/DAY
weekly food consumption, MEAN ([2]; female rats, 25 MG/KG/DAY, WEEK 5 TO 6): 19. C/ANIMAL/DAY
weekly food consumption, MEAN ([2]; female rats, 25 MG/KG/DAY, WEEK 6 TO 7): 18. C/ANIMAL/DAY
weekly food consumption, MEAN ([2]; female rats, 25 MG/KG/DAY, WEEK 7 TO 8): 17. C/ANIMAL/DAY
weekly food consumption, MEAN ([2]; female rats, 25 MG/KG/DAY, WEEK 8 TO 9): 19. C/ANIMAL/DAY
weekly food consumption, MEAN ([2]; female rats, 25 MG/KG/DAY, WEEK 9 TO 10): 18. C/ANIMAL/DAY
weekly food consumption, MEAN ([2]; female rats, 25 MG/KG/DAY, WEEK 10 TO 11): 18. C/ANIMAL/DAY
weekly food consumption, MEAN ([2]; female rats, 25 MG/KG/DAY, WEEK 11 TO 12): 18. C/ANIMAL/DAY
weekly food consumption, MEAN ([2]; female rats, 25 MG/KG/DAY, WEEK 12 TO 13): 17. C/ANIMAL/DAY
weekly food consumption, MEAN ([2]; female rats, 60 MG/KG/DAY group, WEEK −2 TO −1 (before dosing)): 17. C/ANIMAL/DAY
weekly food consumption, MEAN ([2]; female rats, 60 MG/KG/DAY, WEEK 0 TO 1): 13.** C/ANIMAL/DAY
weekly food consumption, MEAN ([2]; female rats, 60 MG/KG/DAY, WEEK 1 TO 2): 17.* C/ANIMAL/DAY
weekly food consumption, MEAN ([2]; female rats, 60 MG/KG/DAY, WEEK 2 TO 3): 18. C/ANIMAL/DAY
weekly food consumption, MEAN ([2]; female rats, 60 MG/KG/DAY, WEEK 3 TO 4): 16. C/ANIMAL/DAY
weekly food consumption, MEAN ([2]; female rats, 60 MG/KG/DAY, WEEK 4 TO 5): 17. C/ANIMAL/DAY
weekly food consumption, MEAN ([2]; female rats, 60 MG/KG/DAY, WEEK 5 TO 6): 18. C/ANIMAL/DAY
weekly food consumption, MEAN ([2]; female rats, 60 MG/KG/DAY, WEEK 6 TO 7): 18. C/ANIMAL/DAY
weekly food consumption, MEAN ([2]; female rats, 60 MG/KG/DAY, WEEK 7 TO 8): 18. C/ANIMAL/DAY
weekly food consumption, MEAN ([2]; female rats, 60 MG/KG/DAY, WEEK 8 TO 9): 18. C/ANIMAL/DAY
weekly food consumption, MEAN ([2]; female rats, 60 MG/KG/DAY, WEEK 9 TO 10): 17. C/ANIMAL/DAY
weekly food consumption, MEAN ([2]; female rats, 60 MG/KG/DAY, WEEK 10 TO 11): 17. C/ANIMAL/DAY
weekly food consumption, MEAN ([2]; female rats, 60 MG/KG/DAY, WEEK 11 TO 12): 18. C/ANIMAL/DAY
weekly food consumption, MEAN ([2]; female rats, 60 MG/KG/DAY, WEEK 12 TO 13): 17. C/ANIMAL/DAY
mean cumulative body weight gain, lower than control ([2]; male rats, 25 mg/kg/day oral): 16%
mean body weight, lower than control ([2]; male rats, 25 mg/kg/day oral): 10%
food consumption, lower than control ([2]; male rats, 25 mg/kg/day, first week): 8%
mean cumulative body weight gain, lower than control ([2]; male rats, 60 mg/kg/day oral): 30%
mean body weight, lower than control ([2]; male rats, 60 mg/kg/day oral): 18%
food consumption, lower than control ([2]; male rats, 60 mg/kg/day, first week): 19%
food consumption, lower than control ([2]; male rats, 60 mg/kg/day, second week): 4%
alanine aminotransferase (ALT) level ([2]; rat, in vivo, 60 mg/kg/day): higher
alkaline phosphatase (ALP), higher ([2]; rat, in vivo, 60 mg/kg/day): 35-55%
bilirubin, higher ([2]; rat, in vivo, 60 mg/kg/day): 35-55%

Clc1ccc([C@]23CNCC2C3)cc1Cl (single isomer, unassigned; (+)) [(+)-1-(3,4-dichlorophenyl)-3-azabicyclo[3.1.0]hexane]
body weight gain compared to vehicle ([3]; oral 2, 4, 6, 20 and 40 mg/kg, 18 hours after administration): dose-dependently suppressed this body weight gain
effect on body weight compared with AM251 or d-FEN1 ([3]; oral doses of 20 and 40 mg/kg, 18 hours): significantly more effective than either AM251 or d-FEN1
